Experimental data as given in patent publication US9725449B2, “Tricyclic compounds as anticancer agents” (BRISTOL-MYERS SQUIBB COMPANY, priority 2015, dated 2017).

molecular target: BRD4 (Homo sapiens, UniProt O60885); experiment: Time resolved fluorescence resonance energy transfer (TR-FRET) binding assay, bromodomain BRD4; details: one of the FRET assays described; read-out: FRET BRD4 IC50

[2H]C([2H])([2H])c1nnn(C)c1-c1cnc2c3ccc(NCCS(C)(=O)=O)nc3n([C@H](c3ccccc3)C3CCOCC3)c2c1 [Example 189, N-(2-Methanesulfonylethyl)-5-[4-(^2H3)methyl-1-methyl-1H-1,2,3-triazol-5-yl]-8-[(S)-oxan-4-yl(phenyl)methyl]-3,8,10-triazatricyclo[7.4.0.0^2,^7]trideca-1(9),2(7),3,5,10,12-hexaen-11-amine] and Cc1nnn(C)c1-c1cnc2c3ccc([S+](C)[O-])nc3n([C@H](c3ccccc3)C3CCOCC3)c2c1 (stereo partly drawn) [Example 200, 5-(Dimethyl-1H-1,2,3-triazol-5-yl)-11-methanesulfinyl-8-[(S)-oxan-4-yl(phenyl)methyl]-3,8,10-triazatricyclo[7.4.0.0^2,^7]trideca-1(9),2(7),3,5,10,12-hexaene] cannot be ordered by IC50: less than 1 nM for the first, less than 10 nM for the second.

COc1nccc2c3ncc(-c4c(C)nnn4C)cc3n(C(c3cccc(F)c3F)C3CCOCC3)c12 (single isomer, unassigned) [Example 23, 8-[(2,3-Difluorophenyl)(oxan-4-yl)methyl]-5-(dimethyl-1H-1,2,3-triazol-5-yl)-10-methoxy-3,8,11-triazatricyclo[7.4.0.0^2,^7]trideca-1(13),2(7),3,5,9,11-hexaene] and COc1nccc2c3ncc(-c4c(C)nnn4C)cc3n(C(c3ccccc3F)C3CCOCC3)c12 (single isomer, unassigned) [Example 19, 5-(Dimethyl-1H-1,2,3-triazol-5-yl)-8-[(2-fluorophenyl)(oxan-4-yl)methyl]-10-methoxy-3,8,11-triazatricyclo[7.4.0.0^2,^7]trideca-1(13),2(7),3,5,9,11-hexaene] cannot be ordered by IC50: less than 1500 nM for the first, less than 10 nM for the second.

[2H]C([2H])([2H])c1nnn(C)c1-c1cnc2c3c(OCC)nccc3n([C@H](c3ccccc3)C3CCOCC3)c2c1 [Example 129, 13-Ethoxy-5-[4-(^2H3)methyl-1-methyl-1H-1,2,3-triazol-5-yl]-8-[(S)-oxan-4-yl(phenyl)methyl]-3,8,12-triazatricyclo[7.4.0.0^2,^7]trideca-1(13),2(7),3,5,9,11-hexaene] and [2H]C([2H])([2H])c1nnn(C)c1-c1cnc2c3cnc(-c4c(C([2H])([2H])[2H])nnn4C)cc3n([C@H](c3ccccc3)C3CCOCC3)c2c1 [Example 168, 5,11-Bis[4-(^2H3)methyl-1-methyl-1H-1,2,3-triazol-5-yl]-8-[(S)-oxan-4-yl(phenyl)methyl]-3,8,12-triazatricyclo[7.4.0.0^2,^7]trideca-1(9),2(7),3,5,10,12-hexaene] cannot be ordered by IC50: less than 1 nM for the first, less than 1 nM for the second.

COc1nnn(C)c1-c1cnc2c3ccc(-c4c(OC)nnn4C)nc3n([C@H](c3ccccc3)C3CCOCC3)c2c1 [Example 166, 5,11-Bis(4-methoxy-1-methyl-1H-1,2,3-triazol-5-yl)-8-[(S)-oxan-4-yl(phenyl)methyl]-3,8,10-triazatricyclo[7.4.0.0^2,^7]trideca-1(9),2(7),3,5,10,12-hexaene] and Cc1nnn(C)c1-c1cnc2c3ccc(-c4ccnn4C)nc3n([C@H](c3ccccc3F)C3CCOCC3)c2c1 [Example 229, 5-(Dimethyl-1H-1,2,3-triazol-5-yl)-8-[(S)-(2-fluorophenyl)(oxan-4-yl)methyl]-11-(1-methyl-1H-pyrazol-5-yl)-3,8,10-triazatricyclo[7.4.0.0^2,^7]trideca-1(13),2(7),3,5,9,11-hexaene] cannot be ordered by IC50: less than 10 nM for the first, less than 10 nM for the second.

[2H]C([2H])([2H])C(C)(O)c1ccc2c3ncc(-c4c(C)nnn4C)cc3n([C@H](c3ccccc3)C3CCOCC3)c2n1 (stereo partly drawn) [Example 177, 2-[5-(Dimethyl-1H-1,2,3-triazol-5-yl)-8-[(S)-oxan-4-yl(phenyl)methyl]-3,8,10-triazatricyclo[7.4.0.0^2,^7]trideca-1(9),2(7),3,5,10,12-hexaen-11-yl](1,1,1-^2H3)propan-2-ol] and [2H]C([2H])([2H])c1nnn(C)c1-c1cnc2c3cnc(N4CCN(C)CC4)cc3n([C@H](c3ccccc3F)C3CCOCC3)c2c1 [Example 244, 8-[(S)-(2-Fluorophenyl)(oxan-4-yl)methyl]-5-[4-(^2H3)methyl-1-methyl-1H-1,2,3-triazol-5-yl]-11-(4-methylpiperazin-1-yl)-3,8,12-triazatricyclo[7.4.0.0^2,^7]trideca-1(13),2(7),3,5,9,11-hexaene] cannot be ordered by IC50: less than 1 nM for the first, less than 10 nM for the second.

Cc1nnn(C)c1-c1cnc2c3c(OCC4CC4)ncc(S(C)(=O)=O)c3n([C@H](c3ccccc3)C3CCOCC3)c2c1 [Example 101, 13-(Cyclopropylmethoxy)-5-(dimethyl-1H-1,2,3-triazol-5-yl)-10-methanesulfonyl-8-[(S)-oxan-4-yl(phenyl)methyl]-3,8,12-triazatricyclo[7.4.0.0^2,^7]trideca-1(13),2(7),3,5,9,11-hexaene] and [2H]C([2H])([2H])c1nnn(C)c1-c1cnc2c3c(OCC4CCCO4)ncc(S(C)(=O)=O)c3n([C@H](c3ccccc3)C3CCOCC3)c2c1 (stereo partly drawn) [Example 110, 10-Methanesulfonyl-5-[4-(^2H3)methyl-1-methyl-1H-1,2,3-triazol-5-yl]-8-[(S)-oxan-4-yl(phenyl)methyl]-13-[(2S)-oxolan-2-ylmethoxy]-3,8,12-triazatricyclo[7.4.0.0^2,^7]trideca-1(13),2(7),3,5,9,11-hexaene] cannot be ordered by IC50: less than 10 nM for the first, less than 10 nM for the second.

“2-{5-[4-(^2H3)Methyl-1-methyl-1H-1,2,3-triazol-5-yl]-8-[1-(pyridin-2-yl)butyl]-3,8,12-triazatricyclo[7.4.0.0^2,^7]trideca-1(13),2(7),3,5,9,11-hexaen-11-yl}propan-2-ol [Example 357]” and COc1nnn(C)c1-c1cnc2c3cnc(N4C[C@@H](C)S(=O)(=O)[C@H](C)C4)nc3n([C@H](c3ccccc3)C3CCOCC3)c2c1 [Example 158, (2R,6R)-4-[5-(4-Methoxy-1-methyl-1H-1,2,3-triazol-5-yl)-8-[(S)-oxan-4-yl(phenyl)methyl]-3,8,10,12-tetraazatricyclo[7.4.0.0^2,^7]trideca-1(9),2(7),3,5,10,12-hexaen-11-yl]-2,6-dimethyl-1λ^6,4-thiomorpholine-1,1-dione] cannot be ordered by IC50: less than 10 nM for the first, less than 10 nM for the second.

[2H]C([2H])([2H])c1onc(C)c1-c1cnc2c3c(OC)ncc(S(C)(=O)=O)c3n([C@H](c3ccccc3)C3CCOCC3)c2c1 [Example 60, 10-Methanesulfonyl-13-methoxy-5-[5-(^2H3)methyl-3-methyl-1,2-oxazol-4-yl]-8-[(S)-oxan-4-yl(phenyl)methyl]-3,8,12-triazatricyclo[7.4.0.0^2,^7]trideca-1(13),2(7),3,5,9,11-hexaene] and [2H]C([2H])([2H])c1nnn(C)c1-c1cnc2c3c(O)ncc(S(C)(=O)=O)c3n([C@H](c3ccccc3)C3CCC(F)(F)CC3)c2c1 [Example 92, 8-[(S)-(4,4-Difluorocyclohexyl)(phenyl)methyl]-10-methanesulfonyl-5-[4-(^2H3)methyl-1-methyl-1H-1,2,3-triazol-5-yl]-3,8,12-triazatricyclo[7.4.0.0^2,^7]trideca-1(13),2(7),3,5,9,11-hexaen-13-ol] cannot be ordered by IC50: less than 1 nM for the first, less than 10 nM for the second.

Compound Cc1cnn(C)c1-c1ccc2c3ncc(-c4c(C)nnn4C)cc3n([C@H](c3ccccc3)C3CCOCC3)c2n1 [Example 148, 5-(Dimethyl-1H-1,2,3-triazol-5-yl)-11-(1,4-dimethyl-1H-pyrazol-5-yl)-8-[(S)-oxan-4-yl(phenyl)methyl]-3,8,10-triazatricyclo[7.4.0.0^2,^7]trideca-1(13),2(7),3,5,9,11-hexaene] has an IC50 of less than 10 nM.
